Assays:
Assay in all cases: relative viability (nuclei count vs DMSO), 5 days (fraction); higher = more cells survive
AZD8055 + Phenformin = compound: COc1ccc(-c2ccc3c(N4CCOC[C@@H]4C)nc(N4CCOC[C@@H]4C)nc3n2)cc1CO [AZD8055] + N=C(N)NC(=N)NCCc1ccccc1 [Phenformin] (partner 250 µM)
Outline: (§1)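 Dosing by pin tool came one day after lung cancer cell lines were seeded in 1536-well plates, using either one drug or a fixed anchor-drug dose plus five library-drug doses (not always all listed) in √10 steps. After 5 days, nuclei were counted on 4× images. Relative viability is treated-well nuclei count divided by vehicle-well nuclei count, and values are medians of duplicate plates.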

AZD8055 + Olaparib = compound: COc1ccc(-c2ccc3c(N4CCOC[C@@H]4C)nc(N4CCOC[C@@H]4C)nc3n2)cc1CO [AZD8055] + O=C(c1cc(Cc2n[nH]c(=O)c3ccccc23)ccc1F)N1CCN(C(=O)C2CC2)CC1 [Olaparib] (partner 8 µM)
Outline: as §1

AZD8055 + Trametinib = compound: COc1ccc(-c2ccc3c(N4CCOC[C@@H]4C)nc(N4CCOC[C@@H]4C)nc3n2)cc1CO [AZD8055] + CC(=O)Nc1cccc(-n2c(=O)n(C3CC3)c(=O)c3c(Nc4ccc(I)cc4F)n(C)c(=O)c(C)c32)c1 [Trametinib] (partner 0.02 µM)
Outline: as §1

AZD8055 = compound: COc1ccc(-c2ccc3c(N4CCOC[C@@H]4C)nc(N4CCOC[C@@H]4C)nc3n2)cc1CO [AZD8055]
Outline: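 For viability, nuclei in each treated well were divided by nuclei in vehicle wells and the median across plates was taken. Lung cancer cell lines in 1536-well plates were pinned with five library-drug doses (not always all listed) spaced by √10, cultured 5 days without medium change, and imaged at 4× after Hoechst staining, with plates passing only at control CV below 25% and at least one doubling.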

Cell Line	relative viability (AZD8055 + Phenformin; first compound 0.01 µM)	relative viability (AZD8055 + Phenformin; first compound 0.03162 µM)	relative viability (AZD8055 + Phenformin; first compound 0.1 µM)	relative viability (AZD8055 + Phenformin; first compound 0.3162 µM)	relative viability (AZD8055 + Phenformin; first compound 1 µM)	relative viability (AZD8055 + Olaparib; first compound 0.01 µM)	relative viability (AZD8055 + Olaparib; first compound 0.03162 µM)	relative viability (AZD8055 + Olaparib; first compound 0.1 µM)	relative viability (AZD8055 + Olaparib; first compound 0.3162 µM)	relative viability (AZD8055 + Olaparib; first compound 1 µM)	relative viability (AZD8055 + Trametinib; first compound 0.01 µM)	relative viability (AZD8055 + Trametinib; first compound 0.03162 µM)	relative viability (AZD8055 + Trametinib; first compound 0.1 µM)	relative viability (AZD8055 + Trametinib; first compound 0.3162 µM)	relative viability (AZD8055 + Trametinib; first compound 1 µM)	relative viability (AZD8055; 0.01 µM)	relative viability (AZD8055; 0.03162 µM)	relative viability (AZD8055; 0.1 µM)	relative viability (AZD8055; 0.3162 µM)	relative viability (AZD8055; 1 µM)
H3255	0.349	0.397	0.332	0.279	0.305	0.627	0.606	0.516	0.326	0.36	0.687	0.588	0.455	0.306	0.322	1.11	0.948	0.778	0.436	0.349
NCI-H650	0.473	0.378	0.429	0.305	0.302	0.484	0.38	0.357	0.217	0.175	1.13	1.09	0.888	0.469	0.353	0.984	0.809	0.738	0.427	0.303
LCLC-103H	0.307	0.291	0.268	0.206	0.224	0.824	0.634	0.631	0.47	0.396	0.628	0.636	0.469	0.456	0.425	0.945	0.86	0.86	0.609	0.519
LOU-NH91	0.678	0.711	0.532	0.49	0.455	1.03	0.913	0.816	0.633	0.607	0.765	0.74	0.64	0.564	0.587	0.931	0.934	0.724	0.633	0.624
NCI-H1650	0.534	0.518	0.383	0.288	0.266	0.985	0.865	0.726	0.417	0.472	0.724	0.544	0.502	0.394	0.261	0.923	1	0.802	0.498	0.419
NCI-H3122	0.444	0.425	0.428	0.233	0.204	0.775	0.697	0.689	0.338	0.283	0.227	0.195	0.175	0.119	0.0905	1.06	1.11	0.846	0.457	0.311
PC-3 [JPC-3]	0.464	0.479	0.47	0.464	0.456	1.19	1.26	1.13	0.798	0.61	0.749	0.757	0.565	0.462	0.445	1.08	1.11	0.931	0.957	0.609
NCI-H1651	0.323	0.318	0.329	0.261	0.232	0.193	0.191	0.193	0.222	0.25	0.809	0.715	0.735	0.582	0.462	1.08	0.847	0.871	0.61	0.389
NCI-H2087	0.555	0.41	0.422	0.242	0.232	0.625	0.519	0.451	0.263	0.217	0.248	0.166	0.169	0.153	0.116	1.14	0.908	0.936	0.458	0.349

Source: the supplement of paper PMC10307832
